Results taken from the supplement of paper PMC4862054.

Columns and labels:
Conditions in all cases: incubation time: 72 h
MDA-MB-453 [1] = assay: normalised response (% of control), CellTox Green; higher = less cell death (100 = DMSO, 0 = benzethonium chloride kill control)
Summary of the method: (§1)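 Breast cancer cell lines were exposed for 72 h in 384-well plates to compound at 5 concentrations, 10-fold apart, covering a 10,000-fold range fixed for each compound. Plates were read for CellTox Green fluorescence and CellTiter-Glo luminescence and normalised to 0.1 % DMSO (100) and a positive kill control (0). Each value is the normalised signal at one concentration of the series.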

BT-549 [2] = assay: as above
Summary of the method: as §1

BT-474 [3] = assay: as above
Summary of the method: as §1

MDA-MB-436 = assay: as above
Summary of the method: as §1

CAL-148 [4] = assay: as above
Summary of the method: as §1

CAL-51 [5] = assay: as above
Summary of the method: as §1

MDA-MB-231 = assay: as above
Summary of the method: as §1

MFM-223 = assay: as above
Summary of the method: as §1

CAL-120 [6] = assay: as above
Summary of the method: as §1

HDQ-P1 [7] = assay: as above
Summary of the method: as §1

DU-4475 [8] = assay: as above
Summary of the method: as §1

HCC1143 = assay: as above
Summary of the method: as §1

CAL-85-1 [9] = assay: as above
Summary of the method: as §1

HCC1937 = assay: as above
Summary of the method: as §1

HCC1599 = assay: as above
Summary of the method: as §1

MDA-MB-468 = assay: as above
Summary of the method: as §1

MDA-MB-453 [10] = assay: normalised viability (% of control), CellTiter-Blue; higher = more viable cells (about 100 = DMSO control)
Method: (§2)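 DSRT, CellTiter-Blue viability, 72 h incubation. Signal is normalised to DMSO and benzethonium chloride controls. Value is the normalised response at dose 9.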

CAL-148 [11] = assay: as above
Method: as §2

CAL-51 [12] = assay: as above
Method: as §2

HDQ-P1 [13] = assay: as above
Method: as §2

DU-4475 [14] = assay: as above
Method: as §2

CAL-85-1 [15] = assay: as above
Method: as §2

BT-549 [16] = assay: normalised response (% of control), CellTiter-Glo; higher = more viable cells (100 = DMSO, 0 = benzethonium chloride kill control)
Summary of the method: as §1

BT-474 [17] = assay: as above
Summary of the method: as §1

CAL-51 [18] = assay: as above
Summary of the method: as §1

CAL-120 [19] = assay: as above
Summary of the method: as §1

Hs578T [20] = assay: as above
Summary of the method: as §1

Hs578T [21] = assay: normalised response (% of control), CellTox Green; higher = less cell death (100 = DMSO, 0 = benzethonium chloride kill control)
Summary of the method: as §1

MCF-10A = assay: as above
Summary of the method: as §1

Compound	normalised response (MDA-MB-453 [1])	normalised response (BT-549 [2])	normalised response (BT-474 [3])	normalised response (MDA-MB-436)	normalised response (CAL-148 [4])	normalised response (CAL-51 [5])	normalised response (MDA-MB-231)	normalised response (MFM-223)	normalised response (CAL-120 [6])	normalised response (HDQ-P1 [7])	normalised response (DU-4475 [8])	normalised response (HCC1143)	normalised response (CAL-85-1 [9])	normalised response (HCC1937)	normalised response (HCC1599)	normalised response (MDA-MB-468)	normalised viability (MDA-MB-453 [10])	normalised viability (CAL-148 [11])	normalised viability (CAL-51 [12])	normalised viability (HDQ-P1 [13])	normalised viability (DU-4475 [14])	normalised viability (CAL-85-1 [15])	normalised response (BT-549 [16])	normalised response (BT-474 [17])	normalised response (CAL-51 [18])	normalised response (CAL-120 [19])	normalised response (Hs578T [20])	normalised response (Hs578T [21])	normalised response (MCF-10A)
C[C@@H](C(=O)O)c1ccc(-c2ccccc2)c(F)c1 [Tarenflurbil] (10000 nM)	103%	101%	88.4%	90%	101%	113%	99.9%	92.6%	91.1%	110%	101%	121%	110%	109%	102%	153%	84%	89.9%	111%	129%	95.1%	91.4%	99%	95.2%	120%	104%	97.5%		
COc1cc2c(N3CCN(C(=O)Nc4ccc(OC(C)C)cc4)CC3)ncnc2cc1OCCCN1CCCCC1 [Tandutinib] (1000 nM)	101%	108%	100%	86.9%	93.5%	98.5%	99.1%	89%	96.2%	97.1%	98.6%	114%	105%	93.2%	100%	120%	92.9%	71.1%	58%	128%	58.4%	93%	102%	97.7%	117%	106%	92.3%	122%	93.5%
NC1(c2ccc(-c3nc4ccn5c(=O)[nH]nc5c4cc3-c3ccccc3)cc2)CCC1 [MK-2206] (1000 nM)	96.7%	122%	99.2%	112%	11.1%	98.1%	106%	95.9%	97.8%	109%	109%	131%	69%	108%	117%	147%	11%	36.8%	45.3%	86.4%	53.5%	58.4%	69.3%	95.4%	84.2%	92.5%	87.2%	82.1%	104%
O=C(c1cc(Cc2n[nH]c(=O)c3ccccc23)ccc1F)N1CCN(C(=O)C2CC2)CC1 [Olaparib] (10000 nM)	109%	102%	96.4%	44%	75.3%	44.8%	35.9%	102%	94.8%		98.5%	94.2%	105%	99.8%	99.2%	112%	78.1%	56.1%	39.3%	96.5%	71.7%	80.7%	78.1%	67.5%	66.1%	82.3%	84.6%	96.5%	94.8%
